Legend:
[1] = system: Plasmodium falciparum; experiment: In vitro antimalarial activity against Plasmodium falciparum W2 in human erythrocytes by [3H]hypoxanthine uptake; format: functional, organism-based
[2] = system: Plasmodium falciparum; experiment: In vitro inhibition of parasite development of Plasmodium falciparum W2 in human erythrocytes; format: functional, organism-based

Row | SMILES | IC50 [1] | IC50 [2] | IC50 ([1]; Plasmodium falciparum) | IC50 ([2]; Plasmodium falciparum)
1 | C=C[C@H]1C[N@+]2(Cc3cc(C(C)(C)C)c(OC)c(C(C)(C)C)c3)CC[C@H]1C[C@@H]2[C@@H](O)c1ccnc2ccccc12 (stereo in doubt; form 1) | 0.8 µM | 0.53 µM |  | 
2 | C=C[C@H]1C[N@+]2(Cc3cc(C(C)(C)C)c(OC)c(C(C)(C)C)c3)CC[C@H]1C[C@@H]2[C@@H](O)c1ccnc2ccccc12 (stereo in doubt; form 2) | 0.36 µM | 0.16 µM |  | 
3 | C=C[C@H]1CN2CC[C@H]1C[C@@H]2[C@@H](O)c1ccnc2ccc(OC)cc12 [QUINIDINE] |  |  | 0.16 µM | 0.004 µM
4 | C=C[C@H]1CN2CC[C@H]1C[C@@H]2[C@@H](O)c1ccnc2ccccc12 [CINCHONINE] |  |  | 0.22 µM | 0.051 µM
5 | C=C[C@H]1C[N@+]2(Cc3cc(C(C)(C)C)c(OC)c(C(C)(C)C)c3)CC[C@H]1C[C@H]2[C@H](O)c1ccnc2ccccc12 |  |  | 0.51 µM | 0.16 µM
6 | C=C[C@H]1C[N@+]2(Cc3cc(C(C)(C)C)c(OC)c(C(C)(C)C)c3)CC[C@H]1C[C@H]2[C@H](O)c1ccnc2ccc(OC)cc12 |  |  | 0.38 µM | 0.099 µM
7 | C=C[C@H]1C[N@+]2(Cc3cc(C(C)(C)C)c(OC)c(C(C)(C)C)c3)CC[C@H]1C[C@@H]2[C@@H](OCc1ccccc1)c1ccnc2ccccc12 |  |  | 1.1 µM | 0.12 µM
8 | C=C[C@H]1C[N@+]2(Cc3cc(C(C)(C)C)c(OC)c(C(C)(C)C)c3)CC[C@H]1C[C@H]2[C@H](OCc1ccccc1)c1ccnc2ccc(OC)cc12 |  |  | 0.62 µM | 0.15 µM
9 | C=CCO[C@@H](c1ccnc2ccc(OC)cc12)[C@H]1C[C@@H]2CC[N@@+]1(Cc1cc(C(C)(C)C)c(OC)c(C(C)(C)C)c1)C[C@@H]2C=C |  |  | 1.2 µM | 0.23 µM
10 | C=C[C@H]1C[N@+]2(Cc3cc(C(C)(C)C)c(OC)c(C(C)(C)C)c3)CC[C@H]1C[C@H]2[C@H](OCc1ccccc1)c1ccnc2ccccc12 |  |  | 0.52 µM | 0.063 µM
11 | C=CCO[C@H](c1ccnc2ccc(OC)cc12)[C@@H]1C[C@@H]2CC[N@@+]1(Cc1cc(C(C)(C)C)c(OC)c(C(C)(C)C)c1)C[C@@H]2C=C |  |  | 1 µM | 0.41 µM
12 | C=C[C@H]1CN2CC[C@H]1C[C@H]2[C@H](O)c1ccnc2ccccc12 [CINCHONIDINE] |  |  | 0.38 µM | 0.29 µM
13 | C=C[C@H]1CN2CC[C@H]1C[C@H]2[C@H](O)c1ccnc2ccc(OC)cc12 [QUININE] |  |  | 0.37 µM | 0.12 µM
14 | C=C[C@H]1C[N@+]2(Cc3cc(C(C)(C)C)c(OC)c(C(C)(C)C)c3)CC[C@H]1C[C@@H]2[C@@H](OCc1ccccc1)c1ccnc2ccc(OC)cc12 |  |  | 0.41 µM | 0.1 µM
15 | C=C[C@H]1C[N@+]2(Cc3cc(C(C)(C)C)c(OC)c(C(C)(C)C)c3)CC[C@H]1C[C@@H]2[C@@H](O)c1ccnc2ccc(OC)cc12 |  |  | 1 µM | 0.51 µM
16 | C=CCO[C@H](c1ccnc2ccccc12)[C@@H]1C[C@@H]2CC[N@@+]1(Cc1cc(C(C)(C)C)c(OC)c(C(C)(C)C)c1)C[C@@H]2C=C |  |  | 1.1 µM | 0.58 µM

Reference: ChEMBL document CHEMBL1135107, “Synthesis and evaluation of new antimalarial analogues of quinoline alkaloids derived from Cinchona ledgeriana Moens ex Trimen” (Bioorg Med Chem Lett, 2002)
